Reference: patent US10961196B2, “Compounds for use as an anti-bacterial or anti-fungal agent and as a zinc sensor” (UNIVERSITÄT KONSTANZ, priority 2016, dated 2021)
pIC50: −log10 of the molar value. “And” between values parts separate entries of the source, which are not always exact repeats. Equal entries are not always repeated.

Key:
S. aureus NCTC 8325 = assay: Minimum inhibitory concentration (MIC), 96-well plates, serial dilutions in LB medium; assay type: cell-based; conditions: Staphylococcus aureus, NCTC8325; S. aureus NCTC 8325, LB medium; read-out: Minimum inhibitory concentration (MIC)
Source text: (§1) Example 12: Determination of the Minimum Inhibitory Concentration (MIC) with Non-Pathogenic E. coli and B. subtilis and/or Pathogenic Strains of S. aureus Including Three MRSA Strains (USA 300, Mu50 and DSM18827) as Well as the Pathogenic Fungus Candida albicans
(§2) Minimum inhibitory concentrations (MIC) for compounds 1 to 11 with non-pathogenic E. coli and B. subtilis and/or pathogenic strains of S. aureus including three MRSA strains (USA 300, Mu50 and DSM18827) as well as the pathogenic fungus Candida albicans were determined in 96-well plates with serial dilutions in LB medium.

S. aureus Mu50 (MRSA) = assay: as above; assay type: cell-based; conditions: Staphylococcus aureus; S. aureus Mu50 (MRSA), LB medium; read-out: Minimum inhibitory concentration (MIC)
Source text: as §1, §2

Candida albicans = assay: as above; assay type: cell-based; conditions: C. albicans, LB medium, read-out: Minimum inhibitory concentration (MIC)
Source text: as §1, §2

[1] = test system: S. aureus DSM18827 (MRSA); assay: as above; assay type: cell-based; conditions: Staphylococcus aureus, DSM 11827 / DSM 18827 / MRSA; S. aureus DSM18827 (also printed DSM11827), MRSA, LB medium; read-out: Minimum inhibitory concentration (MIC)
Source text: as §1, §2

B. subtilis = assay: as above; assay type: cell-based; conditions: Bacillus subtilis; B. subtilis, LB medium; read-out: Minimum inhibitory concentration (MIC)
Source text: as §1, §2

S. aureus USA 300 (MRSA) = assay: as above; assay type: cell-based; conditions: Staphylococcus aureus; S. aureus USA 300 (MRSA), LB medium; read-out: Minimum inhibitory concentration (MIC)
Source text: as §1, §2
Example 21: Determination of the Minimum Inhibitory Concentration (MIC) for the Compounds Represented by the Formulas (14) and (16) with the Pathogenic USA 300 (MRSA) Strain of S. aureus
Minimum inhibitory concentrations (MIC) for the compounds represented by the Formulas (14) and (16) with the pathogenic MRSA strains of S. aureus USA 300 were determined in 96-well plates with serial dilutions in LB medium.

elastase (LasB) [2] = target: elastase (LasB) (Pseudomonas aeruginosa, UniProt P14756); assay: In vitro elastase assay with fluorogenic substrate Abz-peptide-Nba; assay type: biochemical, P. aeruginosa
Sequence of elastase (LasB) (Pseudomonas aeruginosa, UniProt P14756) (P14756 198-498): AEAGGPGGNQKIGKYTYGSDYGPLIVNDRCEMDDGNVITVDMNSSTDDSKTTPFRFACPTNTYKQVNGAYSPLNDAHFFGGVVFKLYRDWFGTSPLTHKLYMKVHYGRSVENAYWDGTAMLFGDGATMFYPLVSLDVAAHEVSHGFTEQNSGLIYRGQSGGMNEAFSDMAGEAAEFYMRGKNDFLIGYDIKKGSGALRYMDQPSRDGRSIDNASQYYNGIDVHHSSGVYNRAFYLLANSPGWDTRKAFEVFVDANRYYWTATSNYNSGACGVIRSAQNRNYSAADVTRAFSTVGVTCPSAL
Description: Example 16: In Vitro Inhibition of Elastase (LasB) with Compounds 6, 7, and 12
An in-vitro elastase assay was performed according to Cathcart et al. (G. R. Cathcart, B. F. Gilmore, B. Greer, P. Harriott, B. Walker, Bioorganic & medicinal chemistry letters 2009, 19, 6230-6232). For a typical in vitro elastase assay 82 μL buffer (0.05 M TRIS HCl, 2.5 mM CaCl2, pH=7.2) and 5 μL of compound 6 solved in DMSO were added in a 96 well plate. 10 μL of 3 μg/mL elastase (solved in the same Tris/CaCl2 buffer) were added and mixed with the compound. After incubation for 10 min at room temperature, 3 μL fluorogenic substrate Abz-peptide-Nba (2-aminobenzoyl-Ala-Gly-Leu-Ala-4-nitrobenzylamide) in DMF were added and the fluorescence measured for 90 min in one minute steps (excitation at 330 nm, emission at 460 nm). The slope of the resulting graph was used to calculate the enzymatic activity.

elastase (LasB) [3] = target: T1, elastase (LasB) (Pseudomonas aeruginosa, UniProt Q02RJ6); assay: In situ inhibition of elastolytic activity (Elastin-Congo Red) with life cultures of P. aeruginosa PA14; assay type: cell-based
T1 construct: 1.4 mL of the culture was centrifuged and the supernatant filtered through a sterile filter; endogenous in cells; host or cells: P. aeruginosa PA14 culture (supernatant)
T1 sequence (Q02RJ6 198-498): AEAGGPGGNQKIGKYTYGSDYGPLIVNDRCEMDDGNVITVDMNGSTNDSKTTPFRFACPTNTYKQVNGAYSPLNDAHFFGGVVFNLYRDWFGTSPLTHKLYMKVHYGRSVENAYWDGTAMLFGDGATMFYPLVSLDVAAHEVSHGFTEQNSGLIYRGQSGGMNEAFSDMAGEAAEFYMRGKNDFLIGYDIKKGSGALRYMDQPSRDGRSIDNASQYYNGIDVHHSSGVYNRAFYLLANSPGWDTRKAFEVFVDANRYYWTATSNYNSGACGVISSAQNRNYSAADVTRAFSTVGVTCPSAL
Description: Example 17: In Situ Inhibition of Elastase (LasB) with Compound 6
The in situ efficacy of Compound 6 was investigated by measuring the concentration dependent inhibition of elastolytic activity with life cultures of P. aeruginosa. The elastase assay was performed according to Calfee et al. (M. W. Calfee, J. P. Coleman, E. C. Pesci, Proceedings of the National Academy of Sciences of the United States of America 2001, 98, 11633-11637.) 10 μL of an overnight culture of PA14 was added to 3 mL of PTSB medium together with 15 μL of Compound 6 dissolved in DMSO at different stock concentrations. The culture was incubated for 24 h at 37° C. and 200 rpm. 1.4 mL of the culture was centrifuged and the supernatant filtered through a sterile filter. Thereafter, 0.5 mL ECR-buffer (0.1 M Tris HCl, 1 mM CaCl2, pH=7.2) together with 10 mg Elastin-Congo Red was added to 0.5 ml of the sterile flow-through and the mixture incubated for 3 h at 37° C. and 1600 rpm. After the incubation, 0.1 mL Na2EDTA (0.12 M) was added to quench the enzymatic reaction. After mixing, the solution was centrifuged (10 min at 6000 rpm) and 0.2 mL of the supernatant measured at 495 nm in a 96 well plate. It was observed that Compound 6 is an efficient inhibitor of elastolytic activity in situ resulting in sigmoidal inhibition behaviour with an IC50 of 40 μM (cf. FIG. 9).

**Q.** Which MIC (S. aureus NCTC 8325) does the source give for `CCCCCCCc1[nH]c2ccccc2c(=S)c1O` [Compound 6, 2-heptyl-3-hydroxyquinoline-4(1H)-thione] here?
**A.** 100 µM and 27.5 µg/mL

**Q.** And the MIC (S. aureus Mu50 (MRSA))?
**A.** 150 µM and 41.3 µg/mL

**Q.** And the MIC (Candida albicans)?
**A.** 100 µM and 27.5 µg/mL

**Q.** What about the MIC [1] of the same compound?
**A.** 150 µM and 41.3 µg/mL

**Q.** And the MIC (B. subtilis)?
**A.** 125 µM and 34.4 µg/mL

**Q.** What about the MIC (S. aureus USA 300 (MRSA)) of the same compound?
**A.** 150 µM and 41.3 µg/mL

**Q.** What about the pIC50 (elastase (LasB) [2]) of the same compound?
**A.** 5.40

**Q.** And the pIC50 (elastase (LasB) [3])?
**A.** 4.40
